Test results from publication PMC11589570, “Critical assessment of LC3/GABARAP ligands used for degrader development and ligandability of LC3/GABARAP binding pockets” (Nature Communications, 2024).
“And” between values parts separate entries of the source, which are not always exact repeats. Equal values may be shown once.

Tested on: U2OS cells
Experiment: Cell growth assay (IncuCyte confluence over 72 h)
Format: cell-based
Design: key to U2OS cell growth: % of well area covered by cells (confluence)
Protocol: Cell growth assay: Cell confluence (phase) from RPE1 (hTERT RPE-1, ATCC CLR_4000) or U2OS (ATCC, HTB-96) cell lines were monitored over time with the IncuCyte S3 (Sartiorius, Germany) in 384-well plates in 50 ul DMEM media, supplemented with 10% Fetal Bovine Serum (FBS) 1% penicillin/Streptomycin and incubated 24 h before treatment. Experiment was performed as described in Cano-Franco et al.. […] Cell confluence is represented as % of area covered by cells. Each data point represents the average ratio or confluence obtained from three individual wells of the plate.

For `CO[C@@H]1[C@@H](OC(N)=O)[C@@H](O)[C@H](Oc2ccc3c(O)c(NC(=O)c4ccc(O)c(CC=C(C)C)c4)c(=O)oc3c2C)OC1(C)C` [compound 12, Novobiocin], the U2OS cell growth (100 nM, time 10 h) was 31.1029 and 33.4179 and 23.7087, the U2OS cell growth (100 nM, time 0 h) was 19.136 and 22.8325 and 13.4185 and the U2OS cell growth (100 nM, time 2 h) was 26.0593 and 27.2796 and 22.6674. The U2OS cell growth (100 nM, time 4 h) was 30.3299 and 25.4304 and 21.2335, the U2OS cell growth (100 nM, time 6 h) was 27.5347 and 27.1928 and 26.8694 and the U2OS cell growth (100 nM, time 8 h) was 31.7442 and 25.9761 and 21.578. For the same compound, the U2OS cell growth (500 nM, time 0 h) was 26.2226 and 29.6942 and 26.7407, the U2OS cell growth (500 nM, time 2 h) was 28.1697 and 29.3576 and 35.4881 and the U2OS cell growth (500 nM, time 4 h) was 24.6559 and 29.8656 and 34.6982. For the same compound, the U2OS cell growth (500 nM, time 6 h) was 27.3788 and 36.5331 and 38.1104, the U2OS cell growth (1 uM, time 12 h) was 42.1826 and the U2OS cell growth (1 uM, time 0 h) was 33.676 and 37.1441 and 40.8786. The U2OS cell growth (1 uM, time 2 h) was 36.3349 and 37.5509 and 45.2384, the U2OS cell growth (1 uM, time 4 h) was 33.5211 and 30.275 and 38.1541 and the U2OS cell growth (1 uM, time 6 h) was 37.9722 and 40.3217 and 48.2479. For the same compound, the U2OS cell growth (3 uM, time 10 h) was 50.7454 and 57.0193 and 59.2136, the U2OS cell growth (3 uM, time 12 h) was 41.453 and 34.0715 and 58.5093 and the U2OS cell growth (3 uM, time 0 h) was 41.5291 and 47.819 and 45.1855. For the same compound, the U2OS cell growth (3 uM, time 2 h) was 44.8462 and 48.6747 and 48.1364, the U2OS cell growth (3 uM, time 4 h) was 43.175 and 44.1535 and 45.8798 and the U2OS cell growth (3 uM, time 6 h) was 48.3538 and 51.3151 and 53.1755. The U2OS cell growth (3 uM, time 8 h) was 48.5002 and 53.1189 and 54.8109, the U2OS cell growth (5 uM, time 10 h) was 57.6709 and 52.4954 and 56.7999 and the U2OS cell growth (5 uM, time 0 h) was 41.1202 and 38.7556 and 46.8996. For the same compound, the U2OS cell growth (5 uM, time 2 h) was 48.6568 and 43.7565 and 48.1243, the U2OS cell growth (5 uM, time 4 h) was 49.6825 and 47.505 and 46.9675 and the U2OS cell growth (5 uM, time 6 h) was 52.2007 and 50.4885 and 57.3887. The U2OS cell growth (5 uM, time 8 h) was 51.5745 and 47.2991 and 53.416, the U2OS cell growth (10 uM, time 10 h) was 46.9907 and 34.892 and 44.8825 and the U2OS cell growth (10 uM, time 0 h) was 34.3842 and 28.0059 and 32.3826. The U2OS cell growth (10 uM, time 2 h) was 40.1489 and 30.903 and 35.6928, the U2OS cell growth (10 uM, time 4 h) was 42.2655 and 32.6525 and 40.3474 and the U2OS cell growth (10 uM, time 6 h) was 45.1844 and 33.7835 and 42.5534. The U2OS cell growth (10 uM, time 8 h) was 38.9614 and 32.8145 and 39.1419.
